{"source": "paper PMC6273353", "about": "“Design, Synthesis and Evaluation of Novel Tacrine-Ferulic Acid Hybrids as Multifunctional Drug Candidates against Alzheimer’s Disease” (Molecules, 2016)", "key": {"BuChE": {"biological_target": "T1, BuChE (Homo sapiens, UniProt P06276)", "T1 construct": "purchased Sigma-Aldrich", "T1 sequence (P06276 29-602)": "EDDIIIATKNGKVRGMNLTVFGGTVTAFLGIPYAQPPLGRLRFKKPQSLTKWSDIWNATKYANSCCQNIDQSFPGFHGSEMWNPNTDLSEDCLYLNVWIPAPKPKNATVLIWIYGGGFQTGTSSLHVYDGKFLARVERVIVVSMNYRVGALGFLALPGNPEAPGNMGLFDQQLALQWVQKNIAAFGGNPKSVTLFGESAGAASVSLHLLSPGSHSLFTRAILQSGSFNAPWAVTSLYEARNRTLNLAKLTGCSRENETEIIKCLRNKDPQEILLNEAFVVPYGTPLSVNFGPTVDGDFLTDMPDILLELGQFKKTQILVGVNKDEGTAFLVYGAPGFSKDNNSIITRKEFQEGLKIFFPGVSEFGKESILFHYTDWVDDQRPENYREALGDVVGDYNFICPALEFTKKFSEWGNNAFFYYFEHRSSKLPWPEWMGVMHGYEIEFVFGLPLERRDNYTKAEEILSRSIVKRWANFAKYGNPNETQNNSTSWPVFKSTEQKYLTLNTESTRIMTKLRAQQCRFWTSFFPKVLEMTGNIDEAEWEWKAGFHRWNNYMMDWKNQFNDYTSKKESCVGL", "test": "biochemical", "conditions": "mean ± SD of three independent experiments", "description": "(§1) Five different concentrations (10^−4–10^−9 M) of each compound were tested for the inhibitory activity for AChE and BuChE. 10 μL 0.86 U/mL AChE or BuChE, 60 μL 0.1 M phosphate buffer (pH 8.0), and 10 μL test compounds were incubated together at 37 °C for 10 min. An amount of 20 μL 10 mmol/L […] or butylthicoline iodide was added and the solution was incubated at 37 °C for 10 min again. Then 20 μL 5 mmol/L 5,5′-dithiobis-(2-nitrobenzoic acid) (DTNB) and 30 μL 1% sodium dodecyl sulfatesodium salt (SDS) were added. […] Each concentration was analyzed three times, and the IC50 value was calculated from the concentration-inhibition response curve on logarithmic scale."}, "AChE [1]": {"biological_target": "T2, AChE (Homo sapiens, UniProt P22303)", "T2 construct": "purchased Sigma-Aldrich", "T2 sequence (P22303 32-614)": "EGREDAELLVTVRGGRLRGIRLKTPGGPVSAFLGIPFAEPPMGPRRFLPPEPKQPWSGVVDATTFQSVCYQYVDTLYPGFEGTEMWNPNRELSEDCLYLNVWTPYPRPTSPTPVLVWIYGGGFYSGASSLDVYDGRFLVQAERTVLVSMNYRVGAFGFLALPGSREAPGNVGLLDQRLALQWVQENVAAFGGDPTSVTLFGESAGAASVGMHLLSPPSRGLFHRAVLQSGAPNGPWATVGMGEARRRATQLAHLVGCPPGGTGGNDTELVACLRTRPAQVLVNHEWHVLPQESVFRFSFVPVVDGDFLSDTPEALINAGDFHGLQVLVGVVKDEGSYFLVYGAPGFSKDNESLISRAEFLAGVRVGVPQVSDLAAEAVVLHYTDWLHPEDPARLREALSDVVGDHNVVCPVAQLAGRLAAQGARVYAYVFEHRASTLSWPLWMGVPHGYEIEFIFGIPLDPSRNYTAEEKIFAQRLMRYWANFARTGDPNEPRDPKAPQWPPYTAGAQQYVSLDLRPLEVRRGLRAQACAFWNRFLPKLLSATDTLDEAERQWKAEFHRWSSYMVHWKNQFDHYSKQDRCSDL", "test": "biochemical", "conditions": "for Selectivity Index: Selectivity index = IC50 (BuChE)/IC50 (AChE); for IC50: mean ± SD of three independent experiments", "description": "as §1"}, "Aβ (1–42)": {"biological_target": "T3, Aβ (1–42) (Homo sapiens, UniProt P05067)", "T3 construct": "An amount of 250 μg Aβ (1–42) was dissolved; purchased Sigma-Aldrich", "T3 sequence (P05067 672-713)": "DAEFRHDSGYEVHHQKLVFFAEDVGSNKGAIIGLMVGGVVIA", "test": "Inhibition of self-induced Aβ (1–42) aggregation, thioflavin T-based fluorometric assay", "format": "biochemical", "conditions": "20 μM compounds, 20 μM Aβ (1–42), 37 °C, 48 h; mean ± SD", "description": "TFAs 8a–e were tested for their ability to inhibit self-induced Aβ (1–42) aggregation by a thioflavin T-based fluorometric assay, and curcumin and ferulic acid were used as reference compounds.\nAn amount of 250 μg Aβ (1–42) was dissolved in 1 mL hexafluoroisopropanol (HFIP) and lyophilizated, then dissolved in 25 μL DMSO and 150 μL 50 mM phosphate buffer saline (PBS). For the self-induced assay, 10 μL of Aβ (1–42) was incubated with 10 μL test compounds, both at a final concentration of 20 μM, at 37 °C for 48 h. Then, 40 μL PBS and 100 μL 5 μM thioflavin T (ThT) in 50 mM glycine-NaOH buffer (pH 8.5) was added. […] The percent inhibition of the self-induced aggregation due to the presence of the test compound was calculated by the following expression: 100 − (IFi/IF0 × 100) where IFi and IF0 are the fluorescence intensities with and without test compound, respectively, minus the fluorescence intensities due to the respective blanks."}, "AChE [2]": {"biological_target": "T2, AChE", "test": "Kinetic analysis of AChE inhibition (Lineweaver-Burk)", "format": "biochemical", "conditions": "Lineweaver-Burk reciprocal plots, six substrate concentrations", "description": "Kinetic characterization of AChE was performed as the reported method using six different substrate concentrations (50, 90, 150, 266, 452, and 904 μM). An amount of 60 µL PBS, 20 µL DTNB, 10 µL AChE, and 10 µL inhibitor were mixed together and pre-incubated for 10 min, followed by the addition of 20 μL different substrate and then incubated for 15 min. After that, 30 μL 1% SDS was added. Kinetic characterization of the hydrolysis of acetylthiocholine chloride catalyzed by AChE was done spectrometrically at 415 nm. A parallel control with no inhibitor in the mixture, allowed adjusting activities to be measured."}, "Neuro-2A cells": {"system": "Neuro-2A cells", "test": "Protective effect against Aβ-induced neurotoxicity, MTT viability assay", "format": "cell-based", "conditions": "8d 5 or 10 μM with 10 μM Aβ (1–42), 48 h, p < 0.05", "description": "To investigate the protective effect of 8d against Aβ-induced cytotoxicity, 8d (0, 5 or 10 μM) and 10 μM Aβ (1–42) was directly added into the medium of the Neuro-2A cells. The cells were incubated for 48 h.\nNeuro-2A cell were grown in dulbecco’s modified eagle medium (DMEM) plus 1% glutamine and 10% heat-inactivated fetal bovine serum. The assays were performed in 96-well microtiter plates. Cells were treated with or without lyophilizated Aβ (1–42) (10 μM), or different concentrations of 8d (5, 10 μM) combination and incubated for 48 h. Then, 10 µL of MTT (5 mg/mL) was added to each well and incubated for four hours, and then the liquid in the wells was removed. DMSO (150 µL) was added to each well. The absorbance was recorded using a microplate reader at a wavelength of 570 nm.\nNeuroprotective effect of 8d were evaluated by cells treated with 8d at the concentration of 0, 5 or 10 μM in the presence of 10 μM Aβ for 48 h; Vehicle group was treated with solvent. The cell viability was assessed using the 3-[4,5-dimethylthylthiazol-2-yl]-2,5 diphenyltetrazoliumbromide (MTT) assay. Data are from three independent experiments and are expressed as the mean ± SD values. ** p < 0.01 compared to vehicle. * p < 0.05, represents significant differences from the control group."}, "[3]": {"test": "Cu2+-chelating properties assay by UV spectrometry", "format": "physicochemical", "conditions": "8d 40 μM with 10, 20, 40 μM CuCl2 in MeOH, UV 220–400 nm", "description": "In recent years, there is mounting evidence to support the theory that endogenous copper can be involved as factors or cofactors in the etiopathogenesis of AD, and modulating Cu^2+ in the brain should be to the benefit of AD treatment. The chelating effect of 8d for Cu^2+ was studied by ultra violet (UV) spectrometry with wavelength ranging from 220 to 400 nm.\nThe complexing studies were determined using a UV spectrophotometer (Beckman Coulter Inc., Brea, CA, USA). Compound 8d (40 µM) in methanol was mixed with 10, 20, 40 µM CuCl2, and then incubated at room temperature for 5 min. The absorption spectra were recorded from 220 nm to 400 nm after incubation."}}}
{"compound": "COC(=O)/C=C/c1ccc(OCCCN2CCN(CC(=O)Nc3c4c(nc5ccccc35)CCCC4)CC2)c(OC)c1", "note": "[Compound 8b, Methyl (E)-3-(3-methoxy-4-(3-(4-(2-oxo-2-((1,2,3,4-tetrahydroacridin-9-yl)amino)ethyl)piperazin-1-yl)propoxy)phenyl)acrylate]", "values": [{"measurement": "IC50", "setting": "BuChE", "value": "120 ± 12.5", "unit": "nM"}, {"measurement": "Selectivity Index", "setting": "AChE [1]", "value": 1.326}, {"measurement": "IC50", "setting": "AChE [1]", "value": "90.3 ± 7.3", "unit": "nM"}, {"measurement": "inhibition at 20 µM", "setting": "Aβ (1–42)", "value": "19.5 ± 2.7", "unit": "%"}]}
{"compound": "COc1cc(/C=C/C(=O)CC(=O)/C=C/c2ccc(O)c(OC)c2)ccc1O", "note": "[curcumin, reference compound]", "values": [{"measurement": "inhibition at 20 µM", "setting": "Aβ (1–42)", "value": "37.3 ± 1.2", "unit": "%"}]}
{"compound": "COC(=O)/C=C/c1ccc(OCCCCCCN2CCN(CC(=O)Nc3c4c(nc5ccccc35)CCCC4)CC2)c(OC)c1", "note": "[Compound 8e, Methyl (E)-3-(3-methoxy-4-((6-(4-(2-oxo-2-((1,2,3,4-tetrahydroacridin-9-yl)amino)ethyl)piperazin-1-yl)hexyl)oxy)phenyl)acrylate]", "values": [{"measurement": "IC50", "setting": "BuChE", "value": "196 ± 3.5", "unit": "nM"}, {"measurement": "Selectivity Index", "setting": "AChE [1]", "value": 1.059}, {"measurement": "IC50", "setting": "AChE [1]", "value": "184 ± 15.2", "unit": "nM"}, {"measurement": "inhibition at 20 µM", "setting": "Aβ (1–42)", "value": "35.1 ± 3.2", "unit": "%"}]}
{"compound": "COc1cc(/C=C/C(=O)O)ccc1O", "note": "[ferulic acid]", "values": [{"measurement": "inhibition at 20 µM", "setting": "Aβ (1–42)", "value": "36.5 ± 3.6", "unit": "%"}]}
{"compound": "COC(=O)/C=C/c1ccc(OCCCCN2CCN(CC(=O)Nc3c4c(nc5ccccc35)CCCC4)CC2)c(OC)c1", "note": "[Compound 8c, Methyl (E)-3-(3-methoxy-4-(4-(4-(2-oxo-2-((1,2,3,4-tetrahydroacridin-9-yl)amino)ethyl)piperazin-1-yl)butoxy)phenyl)acrylate]", "values": [{"measurement": "IC50", "setting": "BuChE", "value": "215 ± 33.7", "unit": "nM"}, {"measurement": "Selectivity Index", "setting": "AChE [1]", "value": 4.087}, {"measurement": "IC50", "setting": "AChE [1]", "value": "52.7 ± 8.2", "unit": "nM"}, {"measurement": "inhibition at 20 µM", "setting": "Aβ (1–42)", "value": "18.5 ± 4", "unit": "%"}]}
{"compound": "COC(=O)/C=C/c1ccc(OCCCCCN2CCN(CC(=O)Nc3c4c(nc5ccccc35)CCCC4)CC2)c(OC)c1", "note": "[Compound 8d, Methyl (E)-3-(3-methoxy-4-((5-(4-(2-oxo-2-((1,2,3,4-tetrahydroacridin-9-yl)amino)ethyl)piperazin-1-yl)pentyl)oxy)phenyl)acrylate]", "values": [{"measurement": "mechanism of AChE inhibition", "setting": "AChE [2]", "value": "mixed-type inhibitors"}, {"measurement": "cell viability compared with Aβ-treated alone group (in words)", "setting": "Neuro-2A cells", "value": "significant dose-dependent increase in cell viability"}, {"measurement": "IC50", "setting": "BuChE", "value": "107 ± 13.1", "unit": "nM"}, {"measurement": "Selectivity Index", "setting": "AChE [1]", "value": 1.733}, {"measurement": "IC50", "setting": "AChE [1]", "value": "61.7 ± 5.2", "unit": "nM"}, {"measurement": "inhibition at 20 µM", "setting": "Aβ (1–42)", "value": "37.2 ± 0.9", "unit": "%"}, {"measurement": "chelating effect for Cu^2+ (in words)", "setting": "[3]", "value": "complex 8d-Cu^2+ had been produced"}]}
{"compound": "COC(=O)/C=C/c1ccc(OCCN2CCN(CC(=O)Nc3c4c(nc5ccccc35)CCCC4)CC2)c(OC)c1", "note": "[Compound 8a, Methyl (E)-3-(3-methoxy-4-(2-(4-(2-oxo-2-((1,2,3,4-tetrahydroacridin-9-yl)amino)ethyl)piperazin-1-yl)ethoxy)phenyl)acrylate]", "values": [{"measurement": "IC50", "setting": "BuChE", "value": "203 ± 35.7", "unit": "nM"}, {"measurement": "Selectivity Index", "setting": "AChE [1]", "value": 0.660}, {"measurement": "IC50", "setting": "AChE [1]", "value": "306 ± 12.4", "unit": "nM"}, {"measurement": "inhibition at 20 µM", "setting": "Aβ (1–42)", "value": "26.1 ± 4.5", "unit": "%"}]}
